Source: patent US20260070891A1, “METHOD FOR PRODUCING QUINOXALINE DERIVATIVE” (Kyowa Kirin Co., Ltd., priority 2022, published 2026)

How the values were obtained:
[1] = Crystal form stability on standing at room temperature, rechecked by powder X-ray diffraction (Test Example 1); assay type: physicochemical; settings: allowed to stand for 8 weeks at room temperature
Procedure: In addition, the measurement of powder X-ray diffraction (reflection method) was performed by pulverizing a sample in an agate mortar, taking an appropriate amount of the sample into a sample plate, and measuring a diffraction peak such that a diffraction angle 20 includes a range of 5° to 40°. The X-ray to be radiated was a copper Ka ray (CuKα ray), and the tube voltage was set to 50 kV, the tube current was set to 1 mA, and the step time was set to 120 seconds. The thermal analysis was performed by taking 2 mg of the sample into an aluminum pan and measuring differential scanning calorimetry (DSC) under a condition of a heating rate of 5° C./min. For the measurement of powder X-ray diffraction (reflection method), D8 DISCOVER manufactured by Bruker AXS was used.
The type II crystal of (R)—N-(3-{2,2,2-trifluoro-1-[6-(2-methyl-2H-1,2,3-triazol-4-yl)pyridin-3-yl]ethoxy}quinoxalin-2-yl) propane-1-sulfonamide obtained in step 3 of Example 1 was allowed to stand for 8 weeks at room temperature.

[2] = Long-term storage stability of crystal at 25° C. and 60% RH (Test Example 1); assay type: physicochemical; settings: 25° C. and 60% RH for 5 years

Compound	crystal form after standing (powder X-ray diffraction) [1]	stability (properties, related substances, optical isomers, content, powder X-ray diffraction pattern) [2]
CCCS(=O)(=O)Nc1nc2ccccc2nc1O[C@H](c1ccc(-c2cnn(C)n2)nc1)C(F)(F)F [type II crystal, (R)—N-(3-{2,2,2-trifluoro-1-[6-(2-methyl-2H-1,2,3-triazol-4-yl)pyridin-3-yl]ethoxy}quinoxalin-2-yl) propane-1-sulfonamide]	transition to a mixed crystal of the type III crystal and the type II crystal	
CCCS(=O)(=O)Nc1nc2ccccc2nc1O[C@H](c1ccc(-c2cnn(C)n2)nc1)C(F)(F)F [type III crystal, (R)—N-(3-{2,2,2-trifluoro-1-[6-(2-methyl-2H-1,2,3-triazol-4-yl)pyridin-3-yl]ethoxy}quinoxalin-2-yl)propane-1-sulfonamide]		no changes in the properties, related substances, optical isomers, content, or powder X-ray diffraction pattern
